Assay results as given in patent publication US20190072562A1, “SYSTEM AND METHOD FOR DETERMINATION OF LIGAND-TARGET BINDING BY MULTI-PHOTON FLUORESCENCE ANISOTROPY MICROSCOPY” (THE GENERAL HOSPITAL CORPORATION, priority 2014, published 2019).

Assays:
PARP1 [1] = target: T1, PARP1 (Homo sapiens, UniProt P09874); experiment: FLIM fluorescence lifetime upon binding to PARP1 in vitro
Procedure: Fluorescence lifetime imaging was performed using a Zeiss 710 confocal NLO laser scanning system on an upright Zeiss Examiner stand with a 40×NA 1.1 water immersion LD CApochromat objective and a Becker & Hickl TCSPC system. Two-photon excitation was achieved using a Coherent Chameleon Vision II tunable laser (680-1040 nm) that provided 140-femtosecond pulses at a 80-Mhz repetition rate with an output power of 3 W at the peak of the tuning curve (800 nm). Laser scanning was controlled by Zeiss Zen software and set to a pixel dwell time of 1.58 microseconds and 0.9-sec frame rate at 910 nm wavelength excitation.
Enhanced detection of the scattered component of the emitted (fluorescence) photons was afforded by the use of a Becker & Hickl HPM-100-40 hybrid detector, which incorporates the Hamamatsu R10467 hybrid PMT tube Imaging was performed in the dark with blackout enclosure around the microscope to exclude external sources of light during the sensitive period of FLIM measurement. Emitted fluorescence was deflected to the non-descanned light path via a 760+ mirror and emission range was limited to 500-550 nm by a Chroma filter in front of the HPM-100-40 detector. […]
where r0 is the fundamental anisotropy of the dye-dependent on the orientation of the excitation and emission dipole moments. […] The fluorescent microspheres (100% and 30%) had the same fluorescence lifetime, 3.6±0.3 nsec. […]

PARP [2] = target: T2, PARP (Homo sapiens, UniProt P09874); experiment: In vitro cellular MFAM imaging of drug target engagement in live cells; type: cell-based
T2 construct: endogenous in cells; host or cells: HT1080
Procedure: HT1080 cells (ATCC) stably expressing H2B mApple fluorescent protein were cultured in DMEM with 10% FBS, 1% pen-strep and 100 μg/ml geneticin (Invitrogen). HT1080 cells were cultured in DMEM with 10% FBS and 1% pen-strep. […] Cells were plated onto 25 mm #1 cover glass for in vitro imaging.
Cells on 25 mm cover glass were mounted into a closed bath perfusion chamber (Warner Instruments) and perfused with a custom perfusion system that enabled solution switching in the imaging chamber. Cells were imaged in phenol red-free DMEM with 10% FBS and 1% pen-strep. AZD2281-BODIPY FL (1 μM) was perfused into the imaging chamber followed by a washout with drug free media. Images were obtained during the entire time interval at regular time points. For competition experiments, free AZD2281 (5 μM) (Selleck Chemicals) was added to the incubating solution before during and after AZD2281-BODIPY FL addition. Me5-BODIPY was used for fluorophore control experiments.
(§1) Images were analyzed in Matlab (Mathworks) and ImageJ. All anisotropy measurements were calculated from the equation r=(I∥−I⊥)/(I∥+2I⊥). The detector noise of the two photodetectors was subtracted from the whole images before the data were processed. Fluorescence images represent the denominator of the anisotropy equation, which represents the entire fluorescence from the sample. Anisotropy values were obtained by defining a region of interest and measuring the average anisotropy within that region. Regions were extended to fluorescent images to calculate the corresponding intensity. […]

PARP [3] = experiment: In vivo MFAM imaging of drug target engagement in HT1080 tumor, mouse dorsal skinfold window chamber
Procedure: All animal experiments were performed in accordance with the Institutional Animal Care and Use Committee at Massachusetts General Hospital. Female 20-weeks old nude mice (Cox-7, Massachusetts General Hospital) were used. All surgical procedures were conducted under sterile conditions and facilitated through the use of a zoom stereomicroscope (Olympus SZ61). During all surgical procedures and imaging experiments mice were anesthetized by isofluorane vaporization (Harvard Apparatus) at a flow rate of […]: 2 L/minute oxygen. The body temperature of the mice was kept constant at 37° C. during all imaging experiments and surgical procedures. Dorsal skinfold window chambers (DSC) were implanted one day prior to imaging following a well-established protocol. Briefly, the two layers of skin on the back of the mouse were stretched and kept in place by the DSC. One skin layer was surgically removed and replaced by a 12-mm diameter glass cover slip positioned on one side of the DSC allowing for convenient access and imaging of the tumor area. A spacer located on the DSC prevented excessive compression of both tissue and vessel guaranteeing good vascularperfusion within the tumor region.
HT1080 H2B mApple cells were harvested by trypsinization (0.25% trypsin:EDTA) and resuspended in PBS. […]

PARP1 [4] = target: T1, PARP1; experiment: MFAM fluorescence anisotropy of free vs PARP1-bound AZD2281-BODIPY FL in solution; type: binding; settings: PARP1 at 1.6x of 5 μM probe, imaging media with 2.5% FBS
Procedure: AZD2281 labeled with BODIPY FL (AZD2281-BODIPY FL) was prepared as previously described (see Thurber, G. M. et al., Single-cell and subcellular pharmacokinetic imaging allows insight into drug action in vivo, Nat Commun, 4, 1504, (2013), for example). PARP1 (BioVision) was brought up in the manufactures recommended solution and added at 1.6× the concentration of AZD2281-BODIPY FL (5 μM) in imaging media containing 2.5% FBS. Free AZD2281-BODIPY FL (5 μM) (no PARP) in the same imaging media with 2.5% FBS and in DMSO solutions were also made. Images were taken of drops of solution between cover glass.
as §1

NeutrAvidin = target: T3, NeutrAvidin (Gallus gallus, UniProt P02701); experiment: Biotin-BODIPY and NeutrAvidin binding by MFAM anisotropy; settings: 10x unlabeled biotin (100 μM)
T3 construct: purchased Thermo Scientific
Procedure: Biotin was conjugated to Me5-BODIPY (Biotin-BODIPY) and brought to 1 mM stock solution in DMSO. Biotin-BODIPY (10 μM) was mixed with varying concentrations of NeutrAvidin (Thermo Scientific) in PBS with 1% Triton X (Sigma). Each sample was imaged in triplicate as a drop between a microscope slide and cover glass. Measurements of each sample were also performed using single photon excitation in a plate reader. Measurements were also made in the presence of 100 μM free Biotin to competitively compete with the Biotin-BODIPY.

T2 sequence (P09874 2-1014): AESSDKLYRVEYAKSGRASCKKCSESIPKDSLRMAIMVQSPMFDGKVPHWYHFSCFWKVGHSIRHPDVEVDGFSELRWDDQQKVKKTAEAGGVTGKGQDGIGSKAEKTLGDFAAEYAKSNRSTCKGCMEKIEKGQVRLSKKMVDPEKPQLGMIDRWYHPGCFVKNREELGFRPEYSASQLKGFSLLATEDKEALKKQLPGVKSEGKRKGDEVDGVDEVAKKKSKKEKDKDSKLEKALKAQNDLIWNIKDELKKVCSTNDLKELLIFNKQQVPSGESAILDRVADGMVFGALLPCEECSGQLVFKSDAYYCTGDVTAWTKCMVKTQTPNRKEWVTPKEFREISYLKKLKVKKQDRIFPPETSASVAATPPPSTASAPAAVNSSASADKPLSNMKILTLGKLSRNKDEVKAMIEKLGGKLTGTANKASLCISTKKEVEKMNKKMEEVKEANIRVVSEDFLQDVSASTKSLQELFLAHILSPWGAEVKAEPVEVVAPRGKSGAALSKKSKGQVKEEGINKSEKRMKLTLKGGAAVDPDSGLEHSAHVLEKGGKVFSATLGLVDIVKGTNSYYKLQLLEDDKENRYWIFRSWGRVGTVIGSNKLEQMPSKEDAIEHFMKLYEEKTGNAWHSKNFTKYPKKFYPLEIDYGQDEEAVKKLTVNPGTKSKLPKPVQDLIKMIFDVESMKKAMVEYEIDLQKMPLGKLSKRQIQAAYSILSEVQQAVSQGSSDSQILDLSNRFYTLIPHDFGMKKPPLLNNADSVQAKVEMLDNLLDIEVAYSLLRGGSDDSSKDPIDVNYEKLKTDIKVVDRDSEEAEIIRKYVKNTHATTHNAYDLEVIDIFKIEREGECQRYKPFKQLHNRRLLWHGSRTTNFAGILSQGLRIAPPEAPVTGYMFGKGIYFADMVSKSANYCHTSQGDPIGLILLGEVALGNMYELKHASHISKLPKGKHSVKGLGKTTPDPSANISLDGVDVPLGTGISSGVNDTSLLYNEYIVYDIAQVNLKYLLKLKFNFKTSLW
T1 sequence (P09874 whole entry): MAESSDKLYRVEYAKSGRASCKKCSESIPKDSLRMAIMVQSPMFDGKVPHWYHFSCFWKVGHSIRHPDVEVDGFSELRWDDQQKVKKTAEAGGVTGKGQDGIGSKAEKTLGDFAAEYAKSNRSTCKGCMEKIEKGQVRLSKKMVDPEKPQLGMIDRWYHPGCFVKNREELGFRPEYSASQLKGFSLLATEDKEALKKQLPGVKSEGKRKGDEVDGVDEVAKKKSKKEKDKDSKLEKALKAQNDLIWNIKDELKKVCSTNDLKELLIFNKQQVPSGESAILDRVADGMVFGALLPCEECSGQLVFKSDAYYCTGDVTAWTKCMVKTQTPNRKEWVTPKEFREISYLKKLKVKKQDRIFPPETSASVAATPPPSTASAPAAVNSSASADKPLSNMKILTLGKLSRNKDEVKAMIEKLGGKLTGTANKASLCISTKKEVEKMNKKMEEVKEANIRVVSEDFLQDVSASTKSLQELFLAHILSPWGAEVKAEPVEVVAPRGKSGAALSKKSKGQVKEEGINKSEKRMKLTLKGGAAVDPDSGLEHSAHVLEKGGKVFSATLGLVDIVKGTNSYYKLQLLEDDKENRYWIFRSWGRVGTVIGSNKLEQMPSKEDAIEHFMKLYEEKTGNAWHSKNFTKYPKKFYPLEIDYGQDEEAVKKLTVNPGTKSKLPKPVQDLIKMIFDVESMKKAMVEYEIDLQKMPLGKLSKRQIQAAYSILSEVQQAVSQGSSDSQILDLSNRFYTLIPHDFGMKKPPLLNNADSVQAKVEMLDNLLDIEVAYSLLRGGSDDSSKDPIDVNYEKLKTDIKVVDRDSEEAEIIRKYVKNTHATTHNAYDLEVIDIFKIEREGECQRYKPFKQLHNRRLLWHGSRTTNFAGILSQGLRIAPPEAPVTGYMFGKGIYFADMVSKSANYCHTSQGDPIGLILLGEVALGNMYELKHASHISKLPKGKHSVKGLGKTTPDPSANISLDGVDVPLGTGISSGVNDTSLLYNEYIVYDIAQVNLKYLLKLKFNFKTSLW
T3 sequence (P02701 25-152): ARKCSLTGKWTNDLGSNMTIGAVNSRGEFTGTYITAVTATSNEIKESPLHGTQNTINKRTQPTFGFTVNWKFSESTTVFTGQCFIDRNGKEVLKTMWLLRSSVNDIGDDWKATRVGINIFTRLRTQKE

Row | Structure (SMILES) | fluorescence lifetime (PARP1 [1]; bound to PARP1) [nsec] | fluorescence lifetime (PARP1 [1]; unbound) [nsec] | localisation of bound drug (high anisotropy) (PARP [2]; HT1080 cells incubated with probe) | bound drug after extended washing cycles (PARP [2]; HT1080 cells, after washing) | target binding in the cytoplasm (PARP [2]; HT1080 cells, loading and washing) | nuclear anisotropy over time in vivo (PARP [3]; after intravenous infusion vs 34 minutes later) | binding to PARP in the nucleus in vivo (PARP [3]; intravenous, implanted HT1080 H2B mApple tumor) | anisotropy of target-bound over free or intracellular drug (PARP1 [4]) | anisotropy increase of Biotin-BODIPY in presence of unlabeled competitor (NeutrAvidin)
1 | Cc1cc(C)n2c1C=C1C=CC(CCC(=O)N3CCN(C(=O)c4cc(Cc5n[nH]c(=O)c6ccccc56)ccc4F)CC3)=[N+]1[B-]2(F)F [AZD2281-BODIPY FL] | 3.3±0.3 | 4.1±0.3 | bound drug was present in the nucleus | the nuclear, bound drug remains | no target binding | the nuclear anisotropy increased | occurred immediately upon drug infusion | significant increase in anisotropy | –
2 | O=C(O)CCCC[C@@H]1SC[C@@H]2NC(=O)N[C@@H]21 [biotin] | – | – | – | – | – | – | – | – | suppressed
